Read-outs that look alike come from different tables or passages of the source.
Columns and labels:
RSV fusion (A2_F) = target: T1, RSV fusion (A2_F) (Human respiratory syncytial virus A, UniProt P03420); assay: RSV fusion assay (luciferase reporter, transfected HEK 293T/17 cells); assay type: cell-based
T1 construct: expressed in transfected cells; host or cells: HEK 293T/17
Procedure: HEK 293T/17 cells were cultured in T75 culture flasks in Dulbecco's medium containing 10% FBS and 1× Penicillin-Streptomycin and warmed to 37° C. prior to use. The cells were passaged by first washing briefly with 3 ml PBS followed by a 4 min incubation with […] at 37° C. 7 ml media was then added to the flask and the cells dispersed via pipetting (×3) against the bottom of the flask. Two further T75 flasks were each seeded with 2×10^6 cells in 15 ml fresh media.
Cells were seeded on the T75 plates at the same density as on the 6-well plates to the area of a T75 flask and one 1.75 cm radius well from a 6-well plate were compared. 7.79×2 ml of 3×10^5 cells ml^−1 was used to seed a single T75 flask.
HEK cells were removed from a T75 flask as described above. The cells were counted and diluted to 3×10^5 cells/ml in fresh media. Two T75 flasks were each seeded with 15.58 ml diluted cells.
The plasmid DNA (for pFR-Luc and pcDNA3.1_Gal4/NFκB) to be transfected into the HEK cells was first prepared in serum free media (DMEM+Pen/Strep) containing the transfection reagent Fugene 6 (Promega). Transfections were set up as follows (Luc=pFR_Luc, Gal4=pcDNA3.1+_Gal4/NFκB, A2_F=pcDNA3.1+_A2_F)
Serum free media was placed in a 1.5 ml eppendorf tube then the fugene 6 was added into the media. The tube was vortexed for 1 s before being incubated at RT for 5 min. The plasmid DNA was then added to the tube, vortexed for 1 s, then incubated at RT for 15 min
The transfection reagents were then added to the appropriate T75 flask by tipping the flask on end and adding the reagents directly to the media already in the flask. […]
Luminescence was measured at appropriate time points as follows:
Media was discarded into Virkon and the plates washed with 100 ul PBS per well. […] Add 100 μl working luciferin buffer to each well and luminescence was measured immediately.
Media was discarded into Virkon and 100 ul SFM+20 ul CellTitre-Blue solution was added to each well. […] Resorufin fluorescence was measured at 590 nm.

[1] = Liver microsomal stability, human; assay type: in vitro ADME; settings: both sexes, pH 7.4, human liver microsomes
Procedure: (§1) Microsomal Incubation: Experimental Procedure
(§2) Pooled human liver microsomes (pooled male and female), pooled rat liver microsomes (male Sprague Dawley rats) and pooled dog liver microsomes (male Beagle dog) are purchased from a reputable commercial supplier and stored at −80° C. prior to use.
Microsomes (final protein concentration 0.5 mg/mL), 0.1 M phosphate buffer pH 7.4 and test compound (final substrate concentration 3 μM; final DMSO concentration 0.25%) are pre-incubated at 37° C. prior to the addition of NADPH (final concentration 1 mM) to initiate the reaction. The final incubation volume is 50 μL. A control incubation is included for each compound tested where 0.1 M phosphate buffer pH 7.4 is added instead of NADPH (minus NADPH). Two control compounds are included with each species. All incubations are performed singularly for each test compound.
(§3) Compounds are incubated for 0, 5, 15, 30 and 45 min. The control (minus NADPH) is incubated for 45 min only. The reactions are stopped by transferring 25 μL of incubate to 50 μL methanol at the appropriate time points. The termination plates are centrifuged at 2,500 rpm for 20 min at 4° C. to precipitate the protein. Following protein precipitation, the sample supernatants are combined in cassettes of up to 4 compounds, internal standard is added and samples analysed by LC-MS/MS. From a plot of ln peak area ratio (compound peak area/internal standard peak area) against time, the gradient of the line is determined. Subsequently, half-life and intrinsic clearance are calculated

[2] = Liver microsomal stability, rat; assay type: in vitro ADME; settings: male, Sprague Dawley
Procedure: as §1, §2
The final incubation volume is 50 μL. A control incubation is included for each compound tested where 0.1 M phosphate buffer pH 7.4 is added instead of NADPH (minus NADPH). Two control compounds are included with each species. All incubations are performed singularly for each test compound.
as §3, with “The” for “Compounds are incubated for 0, 5, 15, 30 and 45 min. The control (minus NADPH) is incubated for 45 min only. The”

[3] = In vivo pharmacokinetics in rats (IV and PO); design: species or system male Sprague Dawley rats; settings: rat; for Vd: 1 mg/kg (IV)
Procedure: The pharmacokinetics of compounds were studied in vivo in male Sprague Dawley rats at doses of 1 mg/kg (IV) and 10 mg/kg (PO).
Sprague Dawley rats were treated with experimental compounds via intravenous and oral administration. Three animals for each route of administration were used with serial blood sampling at ten time points post dosing of compound.
Animals were weighed and used if between 200-250 g. Serial blood samples were collected at 0.02, 0.08, 0.25, 0.50, 1, 2, 4, 6, 8 and 24 hours post dosing. […] Blood samples were delivered into an anticoagulant (sodium heparin) and centrifuged at 4° C. Plasma samples were subsequently stored frozen at less than −20° C. prior to analysis.
Following protein precipitation with acetonitrile, samples were analysed with tandem liquid chromatography/mass spectrometry using electrospray ionisation. A full matrix curve with internal standards was employed and PK parameters were calculated.
In a similar manner, oral administration was performed by gavage at doses of 5 or 10 mg/kg at a concentration of 5 mg/ml in 1% Methyl cellulose (Sigma M7140), 0.1% Tween 80 in water. Serial samples were taken as described above.
RV039 was administered at doses of 1 mg/kg (IV) and 5 mg/kg (PO).

T1 sequence (P03420 26-109): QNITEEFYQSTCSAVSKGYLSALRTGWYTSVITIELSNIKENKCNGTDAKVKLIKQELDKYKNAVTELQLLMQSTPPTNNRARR
T1 sequence (P03420 137-574): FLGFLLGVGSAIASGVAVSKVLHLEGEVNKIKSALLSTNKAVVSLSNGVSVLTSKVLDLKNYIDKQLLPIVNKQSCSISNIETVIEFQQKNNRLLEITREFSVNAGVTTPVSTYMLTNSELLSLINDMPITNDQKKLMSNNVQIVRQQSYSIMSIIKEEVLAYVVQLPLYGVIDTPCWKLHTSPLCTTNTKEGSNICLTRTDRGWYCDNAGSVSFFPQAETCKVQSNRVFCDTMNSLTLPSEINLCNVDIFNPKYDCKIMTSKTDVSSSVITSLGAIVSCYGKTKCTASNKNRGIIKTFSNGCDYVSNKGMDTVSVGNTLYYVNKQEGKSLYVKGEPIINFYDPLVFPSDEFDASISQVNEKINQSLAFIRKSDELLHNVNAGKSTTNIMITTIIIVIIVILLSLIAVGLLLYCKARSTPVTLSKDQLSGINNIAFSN

Row | SMILES | IC50 (RSV fusion (A2_F)) | IC90 (RSV fusion (A2_F); HEK293T/17, read-out: RSV Fusion Assay IC90) | half-life at 3 μM ([1]; 3 μM compound, read-out: Liver Microsomal Stability T1/2, human) | half-life at 3 μM ([2]; pH 7.4, rat liver microsomes, 3 μM compound, read-out: Liver Microsomal Stability T1/2, rat) | bioavailability ([3]; in vivo, male Sprague Dawley rats, 1 mg/kg (IV) and 10 mg/kg (PO), read-out: Bioavailability) | Vd ([3]; in vivo, male Sprague Dawley rats, read-out: Volume of distribution) | Tmax ([3]; in vivo, male Sprague Dawley rats, 10 mg/kg (PO), read-out: Tmax PO) | half-life at 3 μM ([1]; Comparative Example 2, read-out: Liver Microsomal Stability T1/2, human (Table 5)) | half-life at 3 μM ([2]; pooled liver microsomes, pH 7.4, Comparative Example 2, read-out: Liver Microsomal Stability T1/2, rat (Table 5)) | bioavailability ([3]; male, Sprague Dawley, plasma, rats, 1 mg/kg (IV) and 5 mg/kg (PO), Comparative Example 3, read-out: Bioavailability (Table 6)) | Vd ([3]; male, Sprague Dawley, plasma, rats, Comparative Example 3, read-out: Volume of distribution (Table 6)) | Tmax ([3]; male, Sprague Dawley, plasma, rats, 5 mg/kg (PO), Comparative Example 3, read-out: Tmax PO (Table 6))
1 | NCc1ccc2c(c1)nc(CN1C(=O)C3(CC3)c3ccc(F)cc31)n2CCCC(F)(F)F [Example 1, 1′-{[5-(Aminomethyl)-1-(4,4,4-trifluorobutyl)-1H-1,3-benzodiazol-2-yl]methyl}-6′-fluoro-1′,2′-dihydrospiro[cyclopropane-1,3′-indole]-2′-one] | 1.1 nM | 9.4 nM | 0.533 h | 1.33 h | 42% | 22 L/kg | 2.7 h | – | – | – | – | –
2 | CC(C)CCn1c(CN2C(=O)C3(CC3)c3ccccc32)nc2cc(CN)ccc21 [RV039, 1′-((5-(aminomethyl)-1-isopentyl-1H-benzo[d]imidazol-2-yl)methyl)spiro[cyclopropane-1,3′-indolin]-2′-one, reference compound] | 10 nM | – | – | – | – | – | – | 0.0833 h | > 1.58 h | 4.5% | 47 L/kg | 7.3 h

Reference: patent US10106539B2, “Spiro-indolines for the treatment and prophylaxis of respiratory syncytial virus infection (RSV)” (REVIRAL LIMITED, priority 2014, dated 2018)
